From publication PMC10537538, “Preclinical Investigation of a Lipoglycopeptide Dry Powder Inhalation Therapy for the Treatment of Pulmonary MRSA Infection” (Pharmaceutics, 2023)
Structures can show the parent of a compound that is named as a salt. Where two headings read alike, the source gives them in different places.

How the values were obtained:
MSSA ATCC 29213 = test: MIC by CLSI broth microdilution, MSSA; format: cell-based; settings: Staphylococcus aureus, read-out: MSSA MIC
Excerpt: (§1) In Vitro Susceptibility. Clinical and Laboratory Standards Institute (CLSI) guidelines were followed for the determination of the minimum inhibitory concentration (MIC), using cation-adjusted Mueller Hinton broth microdilution at a starting inoculum level of 5 × 10^5 colony forming units (CFUs) per mL [24, 25]. MIC was read by optical density on a BioTek Synergy H1 plate reader (BioTek, Winooski, VT, USA) at 595 nm. Strains used were MRSA ATCC BAA-1556 (USA300, SCCmecIV, pvl^+) and MSSA ATCC 29213 (American Type Culture Collection, Manassas, VA, USA). MIC data are reported as a range to reflect the fact that the value is determined using step dilution.

[1] = system: MRSA ATCC BAA-1556 (USA300); test: MIC by CLSI broth microdilution, MRSA; format: cell-based, Staphylococcus aureus; settings: for MIC: Staphylococcus aureus, read-out: MRSA MIC
Excerpt: as §1

[2] = cited from earlier work

With `CN[C@H](CC(C)C)C(=O)N[C@H]1C(=O)N[C@@H](CC(N)=O)C(=O)N[C@H]2C(=O)N[C@H]3C(=O)N[C@H](C(=O)N[C@H](C(=O)O)c4cc(O)cc(O)c4-c4cc3ccc4O)[C@H](O)c3ccc(c(Cl)c3)Oc3cc2cc(c3O[C@@H]2O[C@H](CO)[C@@H](O)[C@H](O)[C@H]2O[C@H]2C[C@](C)(N)[C@H](O)[C@H](C)O2)Oc2ccc(cc2Cl)[C@H]1O` [Vancomycin, Vancomycin HCl, reference compound] as the compound, how does the MIC (MSSA ATCC 29213) read?
Its MIC is 0.5 to 1 µg/mL.

What about the MIC [1] of the same compound?
The MIC was 0.5 to 2 µg/mL.

With `CCCCCCCCCCNC(=O)CN[C@@]1(C)C[C@H](O[C@H]2[C@H](Oc3c4cc5cc3Oc3ccc(cc3Cl)[C@@H](O)[C@@H](NC(=O)[C@@H](CC(C)C)NC)C(=O)N[C@@H](CC(N)=O)C(=O)N[C@H]5C(=O)N[C@H]3C(=O)N[C@H](C(=O)N[C@H](C(=O)O)c5cc(O)cc(O)c5-c5cc3ccc5O)[C@H](O)c3ccc(c(Cl)c3)O4)O[C@H](CO)[C@@H](O)[C@@H]2O)O[C@@H](C)[C@H]1O` [RV94, N^van-2-amino-N-decylacetamide vancomycin] as the compound, how does the “pH needed to dissolve drug substance” value read?
The value was over 9.

What about the MIC (MSSA ATCC 29213; ATCC 29213, CLSI) of the same compound?
Its MIC is 0.031 to 0.063 µg/mL.

And the “potency relative to vancomycin (fold more potent)” value ([1]; MIC, MSSA and MRSA isolates)?
Its value is “ca. 15 fold”.

What about the MIC ([1]; ATCC BAA-1556 (USA300), CLSI) of the same compound?
The MIC was 0.031 to 0.063 µg/mL.

And the “lung half-life, nebulized form” value ([2]; rat, in vivo, inhaled or intranasal)?
The value was “approximately 4.5 days”.

With `CCCCCCCCCCNCCN[C@@]1(C)C[C@H](O[C@H]2[C@H](Oc3c4cc5cc3Oc3ccc(cc3Cl)[C@@H](O)[C@@H](NC(=O)[C@@H](CC(C)C)NC)C(=O)N[C@@H](CC(N)=O)C(=O)N[C@H]5C(=O)N[C@H]3C(=O)N[C@H](C(=O)N[C@H](C(=O)O)c5cc(O)c(CNCP(=O)(O)O)c(O)c5-c5cc3ccc5O)[C@H](O)c3ccc(c(Cl)c3)O4)O[C@H](CO)[C@@H](O)[C@@H]2O)O[C@@H](C)[C@H]1O` [telavancin, reference compound] as the compound, how does the “lung half-life, nebulized form” value ([2]; rats, inhalation of nebulized preparation) read?
The value was “ca. 21 days”.
